Assays:
[1] = test system: absorption of sodium from the intestinal lumen; experiment: Inhibition of intestinal sodium absorption (urinary sodium and fecal form); type: in vivo, Sprague-Dawley rats; conditions: rat; for response vs control in vivo at 3 mg/kg: 3 mg/kg oral gavage, urine 16 h post-dose, asterisks = significance vs vehicle (*P<0.05, **P<0.01, ***P<0.001), read-out: uNa (% of vehicle)
How it was run: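 Sprague-Dawley rats (8 weeks, n=6) dosed by oral gavage with compound or water vehicle (10 mL/kg) in late afternoon, then housed in metabolic cages. Over 16 h, urinary sodium measured by ion chromatography and expressed as % of vehicle mean; fecal form scored 1–5, averaged from two observations.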

[2] = biological target: T1, Rat NHE-3 (Rattus norvegicus, UniProt P26433); experiment: Cell-based assay of NHE-3 activity (persistent inhibition, after washout); conditions: OK cells with rat NHE-3 gene, 60 min incubation, recovery initiated 40 min after compound washout
T1 construct: expressed in transfected cells; host or cells: Opossum kidney (OK) cells (ATCC), transfected by electroporation
T1 sequence (P26433 29-831): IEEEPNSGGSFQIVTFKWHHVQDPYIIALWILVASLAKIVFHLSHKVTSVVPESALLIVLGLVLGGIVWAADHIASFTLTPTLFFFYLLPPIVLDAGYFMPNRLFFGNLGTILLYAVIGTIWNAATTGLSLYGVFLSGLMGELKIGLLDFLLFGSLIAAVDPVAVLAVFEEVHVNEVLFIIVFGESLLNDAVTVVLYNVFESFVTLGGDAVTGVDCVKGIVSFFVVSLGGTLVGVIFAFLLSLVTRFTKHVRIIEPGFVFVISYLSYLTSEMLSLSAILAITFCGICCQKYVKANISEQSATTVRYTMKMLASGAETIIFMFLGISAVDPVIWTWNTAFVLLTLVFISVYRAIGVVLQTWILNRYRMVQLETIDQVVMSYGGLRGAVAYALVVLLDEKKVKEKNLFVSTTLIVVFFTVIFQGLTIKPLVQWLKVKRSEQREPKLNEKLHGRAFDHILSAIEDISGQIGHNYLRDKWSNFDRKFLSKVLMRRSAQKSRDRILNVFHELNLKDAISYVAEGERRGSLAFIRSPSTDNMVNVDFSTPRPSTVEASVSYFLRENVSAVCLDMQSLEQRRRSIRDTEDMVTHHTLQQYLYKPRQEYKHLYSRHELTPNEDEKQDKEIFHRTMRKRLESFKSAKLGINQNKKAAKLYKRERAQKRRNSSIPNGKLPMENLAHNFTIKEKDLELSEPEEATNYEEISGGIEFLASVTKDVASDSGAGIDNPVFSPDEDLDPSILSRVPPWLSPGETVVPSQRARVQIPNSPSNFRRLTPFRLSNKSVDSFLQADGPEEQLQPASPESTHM
How it was run: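 OK cells transiently expressing rat NHE-3 were exposed to 0-30 μM compound in NaCl-HEPES pH 7.4 for 60 min, then washed free of drug before NH4Cl/BCECF-AM loading and acid-loading in Na+-free choline buffer. Na+-dependent pH recovery rates (mean of ≥2 replicates) gave pIC50.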

[3] = biological target: T1, Rat NHE-3; experiment: Cell-based assay of NHE-3 activity (rat NHE-3 prompt inhibition); conditions: OK cells with rat NHE-3 gene, compound present during pH recovery
How it was run: (§1)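 Opossum kidney cells electroporated with rat or human NHE-3, loaded with 5 μM BCECF-AM in NH4Cl-HEPES pH 7.4 for 30 min at RT, then acidified 10 min in Na+-free choline HEPES. Na+-dependent pH recovery rates from BCECF fluorescence, averaged over ≥2 replicates, gave pIC50.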

[4] = biological target: T2, human NHE-3 (Homo sapiens, UniProt P48764); experiment: Cell-based assay of NHE-3 activity (human NHE3 inhibition assay); conditions: OK cells with human NHE-3 gene, BCECF pH dye, 0-30 μM test compound
T2 construct: expressed in transfected cells; host or cells: Opossum kidney (OK) cells (ATCC), transfected by electroporation
T2 sequence (P48764 26-834): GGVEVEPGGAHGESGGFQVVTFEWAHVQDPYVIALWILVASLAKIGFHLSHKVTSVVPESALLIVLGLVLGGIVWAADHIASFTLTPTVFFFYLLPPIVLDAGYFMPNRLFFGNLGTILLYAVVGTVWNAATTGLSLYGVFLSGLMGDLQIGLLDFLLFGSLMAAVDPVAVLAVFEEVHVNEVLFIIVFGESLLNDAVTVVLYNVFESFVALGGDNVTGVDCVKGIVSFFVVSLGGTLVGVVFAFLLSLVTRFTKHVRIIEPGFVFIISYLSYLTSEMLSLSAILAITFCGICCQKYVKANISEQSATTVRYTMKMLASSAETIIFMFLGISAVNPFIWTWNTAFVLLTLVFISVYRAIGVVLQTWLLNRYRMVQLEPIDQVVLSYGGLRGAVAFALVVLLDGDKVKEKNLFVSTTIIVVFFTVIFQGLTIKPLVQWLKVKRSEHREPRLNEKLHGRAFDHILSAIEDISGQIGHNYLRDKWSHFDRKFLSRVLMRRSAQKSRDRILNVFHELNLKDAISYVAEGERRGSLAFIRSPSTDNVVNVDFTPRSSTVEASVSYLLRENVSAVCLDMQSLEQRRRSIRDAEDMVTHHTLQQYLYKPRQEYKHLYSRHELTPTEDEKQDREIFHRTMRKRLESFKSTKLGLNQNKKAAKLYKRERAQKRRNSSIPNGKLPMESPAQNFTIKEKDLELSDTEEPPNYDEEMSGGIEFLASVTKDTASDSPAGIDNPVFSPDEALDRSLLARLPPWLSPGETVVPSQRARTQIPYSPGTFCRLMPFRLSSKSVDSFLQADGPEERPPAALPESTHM
How it was run: as §1

Row | Rat NHE3 pIC50 (persistent) [2] | Rat NHE3 pIC50 (prompt) [3] | Human NHE3 pIC50 [4] | IC50 ([2]; read-out: Rat NHE3 pIC50 (persistent) (converted)) [nM] | IC50 ([3]; read-out: Rat NHE3 pIC50 (prompt) (converted)) [nM] | IC50 ([4]; read-out: Human NHE3 pIC50 (converted)) [nM] | SMILES | response vs control in vivo at 3 mg/kg [1] [%] | FFS ([1]; fecal form score, scale 1 (normal pellet) to 5 (liquid fecal streams), group average, 3 mg/kg oral, 16 h post-dose, vehicle = 1)
1 | C (C NHE3 pIC50 > 7) | B (B NHE3 pIC50 5-7) | B (B NHE3 pIC50 5-7) |  |  |  | CN1Cc2c(Cl)cc(Cl)cc2[C@H](c2cccc(S(=O)(=O)NCCOCCOCCNC(=O)NCCN(CCNC(=O)NCCOCCOCCNS(=O)(=O)c3cccc([C@@H]4CN(C)Cc5c(Cl)cc(Cl)cc54)c3)CCNC(=O)NCCOCCOCCNS(=O)(=O)c3cccc([C@@H]4CN(C)Cc5c(Cl)cc(Cl)cc54)c3)c2)C1 [Example 53] | 35 to 75 | 
2 | C (C NHE3 pIC50 > 7) | B (B NHE3 pIC50 5-7) | C (C NHE3 pIC50 > 7) |  |  |  | CN1Cc2c(Cl)cc(Cl)cc2[C@H](c2cccc(S(=O)(=O)N(C)CCOCCOCCNC(=O)NCCCN(CCCNC(=O)NCCOCCOCCN(C)S(=O)(=O)c3cccc([C@@H]4CN(C)Cc5c(Cl)cc(Cl)cc54)c3)CCCNC(=O)NCCOCCOCCN(C)S(=O)(=O)c3cccc([C@@H]4CN(C)Cc5c(Cl)cc(Cl)cc54)c3)c2)C1 [Example 54] | > 75 | 
3 | C (C NHE3 pIC50 > 7) | C (C NHE3 pIC50 > 7) | C (C NHE3 pIC50 > 7) |  |  |  | CN1Cc2c(Cl)cc(Cl)cc2[C@H](c2cccc(S(=O)(=O)N(CCO)CCOCCOCCNC(=O)NCCCN(CCCNC(=O)NCCOCCOCCN(CCO)S(=O)(=O)c3cccc([C@@H]4CN(C)Cc5c(Cl)cc(Cl)cc54)c3)CCCNC(=O)NCCOCCOCCN(CCO)S(=O)(=O)c3cccc([C@@H]4CN(C)Cc5c(Cl)cc(Cl)cc54)c3)c2)C1 [Example 56] | 35 to 75 | 
4 | C (C NHE3 pIC50 > 7) | B (B NHE3 pIC50 5-7) | C (C NHE3 pIC50 > 7) |  |  |  | CCN(CCOCCOCCNC(=O)NCCCN(CCCNC(=O)NCCOCCOCCN(CC)S(=O)(=O)c1cccc([C@@H]2CN(C)Cc3c(Cl)cc(Cl)cc32)c1)CCCNC(=O)NCCOCCOCCN(CC)S(=O)(=O)c1cccc([C@@H]2CN(C)Cc3c(Cl)cc(Cl)cc32)c1)S(=O)(=O)c1cccc([C@@H]2CN(C)Cc3c(Cl)cc(Cl)cc32)c1 [Example 57] | 35 to 75 | 
5 | C (C NHE3 pIC50 > 7) | C (C NHE3 pIC50 > 7) | C (C NHE3 pIC50 > 7) |  |  |  | CN1Cc2c(Cl)cc(Cl)cc2[C@H](c2cccc(S(=O)(=O)NCCOCCOCCNC(=O)NCCC[N+](C)(CCCNC(=O)NCCOCCOCCNS(=O)(=O)c3cccc([C@@H]4CN(C)Cc5c(Cl)cc(Cl)cc54)c3)CCCNC(=O)NCCOCCOCCNS(=O)(=O)c3cccc([C@@H]4CN(C)Cc5c(Cl)cc(Cl)cc54)c3)c2)C1 [Example 58] | 35 to 75 | 
6 | C (C NHE3 pIC50 > 7) | C (C NHE3 pIC50 > 7) | C (C NHE3 pIC50 > 7) |  |  |  | CN1Cc2c(Cl)cc(Cl)cc2[C@H](c2cccc(S(=O)(=O)NCCOCCOCCNC(=O)NCCCC(CCCNC(=O)NCCOCCOCCNS(=O)(=O)c3cccc([C@@H]4CN(C)Cc5c(Cl)cc(Cl)cc54)c3)(CCCNC(=O)NCCOCCOCCNS(=O)(=O)c3cccc([C@@H]4CN(C)Cc5c(Cl)cc(Cl)cc54)c3)NC(=O)CCC(=O)O)c2)C1 [Example 63] | 35 to 75 | 
7 | C (C NHE3 pIC50 > 7) | C (C NHE3 pIC50 > 7) | C (C NHE3 pIC50 > 7) |  |  |  | CN1Cc2c(Cl)cc(Cl)cc2[C@H](c2cccc(S(=O)(=O)NCCOCCOCCNC(=O)NCCCC(CCCNC(=O)NCCOCCOCCNS(=O)(=O)c3cccc([C@@H]4CN(C)Cc5c(Cl)cc(Cl)cc54)c3)(CCCNC(=O)NCCOCCOCCNS(=O)(=O)c3cccc([C@@H]4CN(C)Cc5c(Cl)cc(Cl)cc54)c3)NC(=O)COCC(=O)O)c2)C1 [Example 64] | 35 to 75 | 
8 | C (C NHE3 pIC50 > 7) | C (C NHE3 pIC50 > 7) | C (C NHE3 pIC50 > 7) |  |  |  | CN1Cc2c(Cl)cc(Cl)cc2[C@H](c2cccc(S(=O)(=O)NCCOCCOCCNC(=O)NCCC(CCNC(=O)NCCOCCOCCNS(=O)(=O)c3cccc([C@@H]4CN(C)Cc5c(Cl)cc(Cl)cc54)c3)(CCNC(=O)NCCOCCOCCNS(=O)(=O)c3cccc([C@@H]4CN(C)Cc5c(Cl)cc(Cl)cc54)c3)NC(=O)COCC(=O)O)c2)C1 [Example 66] | < 35 | 
9 | C (C NHE3 pIC50 > 7) | C (C NHE3 pIC50 > 7) | C (C NHE3 pIC50 > 7) |  |  |  | CN1Cc2c(Cl)cc(Cl)cc2[C@H](c2cccc(S(=O)(=O)NCCOCCOCCN(C)C(=O)CCC(N)(CCC(=O)N(C)CCOCCOCCNS(=O)(=O)c3cccc([C@@H]4CN(C)Cc5c(Cl)cc(Cl)cc54)c3)CCC(=O)N(C)CCOCCOCCNS(=O)(=O)c3cccc([C@@H]4CN(C)Cc5c(Cl)cc(Cl)cc54)c3)c2)C1 [Example 67] | > 75 | 
10 | C (C NHE3 pIC50 > 7) | C (C NHE3 pIC50 > 7) | C (C NHE3 pIC50 > 7) |  |  |  | CN(C)CC(=O)NC(CCC(=O)N(C)CCOCCOCCNS(=O)(=O)c1cccc([C@@H]2CN(C)Cc3c(Cl)cc(Cl)cc32)c1)(CCC(=O)N(C)CCOCCOCCNS(=O)(=O)c1cccc([C@@H]2CN(C)Cc3c(Cl)cc(Cl)cc32)c1)CCC(=O)N(C)CCOCCOCCNS(=O)(=O)c1cccc([C@@H]2CN(C)Cc3c(Cl)cc(Cl)cc32)c1 [Example 68] | 35 to 75 | 
11 | C (C NHE3 pIC50 > 7) | C (C NHE3 pIC50 > 7) | C (C NHE3 pIC50 > 7) |  |  |  | CN1Cc2c(Cl)cc(Cl)cc2[C@H](c2cccc(S(=O)(=O)NCCOCCOCCN(C)C(=O)CCC(CCC(=O)N(C)CCOCCOCCNS(=O)(=O)c3cccc([C@@H]4CN(C)Cc5c(Cl)cc(Cl)cc54)c3)(CCC(=O)N(C)CCOCCOCCNS(=O)(=O)c3cccc([C@@H]4CN(C)Cc5c(Cl)cc(Cl)cc54)c3)NC(=O)COCC(=O)O)c2)C1 [Example 70] | 35 to 75 | 2
12 |  |  |  | < 100 | 100 to 10000 | 100 to 10000 | CC(=O)C(CCC(=O)NCCOCCOCCNS(=O)(=O)c1cccc([C@@H]2CN(C)Cc3c(Cl)cc(Cl)cc32)c1)(CCC(=O)NCCOCCOCCNS(=O)(=O)c1cccc([C@@H]2CN(C)Cc3c(Cl)cc(Cl)cc32)c1)CCC(=O)NCCOCCOCCNS(=O)(=O)c1cccc([C@@H]2CN(C)Cc3c(Cl)cc(Cl)cc32)c1 [Example 72, 4-acetyl-N1,N7-bis(2-(2-(2-(3-((S)-6,8-dichloro-2-methyl-1,2,3,4-tetrahydroisoquinolin-4-yl)phenylsulfonamido)ethoxy)ethoxy)ethyl)-4-(3-(2-(2-(2-(3-((S)-6,8-dichloro-2-methyl-1,2,3,4-tetrahydroisoquinolin-4-yl)phenylsulfonamido)ethoxy)ethoxy)ethylamino)-3-oxopropyl)heptanediamide] | 35 to 75 | 
